The text below walks through data of patent US20260200920A1, “SUBSTITUTED AMINOPYRIDINE COMPOUNDS FOR USE AS AKT1 INHIBITORS” (Atavistik Bio, Inc., priority 2023, published 2026).

pIC50: −log10 of the molar value.

In experiment [1] the target is T1, human recombinant kinase full-length AKT1 E17K (Homo sapiens, UniProt P31749, E17K).
T1 construct: Purified human recombinant kinase full-length AKT1 E17K was expressed in insect cells; made in house; host or cells: insect cells
Briefly: AKT1 E17K kinase assay (TR-FRET, Lance). In kind it is biochemical. Conditions: 0.6 nM AKT1 E17K, 50 nM Ulight-CREBtide, either 50 μM ATP or 2 mM ATP, 60 min at RT. Here is the method:
AKT1 E17K kinase assay: Inhibitory effects of compounds on AKT1 E17K were undertaken in a 10-pt dose response kinase activity assay measuring phospho-peptide product formation based on TR-FRET signal as described in the following paragraph.
(§1) Purified human recombinant kinase full-length AKT1 E17K was expressed in insect cells and activated in vitro by PDPK1. Ulight™-CREBtide (PerkinElmer, catalog number TRF0107) was used as the peptide substrate. The reaction buffer consisted of 50 mM HEPES pH 7.5, 10 mM MgCl2, 0.01% Triton X-100, 0.01% BSA, 2 mM DTT, 0.6 nM AKT1 E17K, 50 nM Ulight™-CREBtide and either 50 μM ATP or 2 mM ATP. The compound solution was prepared as 10 mM DMSO stock. For the assay, a 1.3 serial dilution 10-pt dose response of test compounds, in duplicate, for each concentration were dispensed into a 384-well plate (Corning, catalog number 4513). Final DMSO concentration in the assay was 1%. The enzyme mixture (5 μL, 1.2 nM) were added and the mixture was incubated for 15 min at RT prior to the start of the kinase reaction by the addition of 5 μL substrate mixture (100 nM Ulight™-CREBtide). The reaction was stopped after 60 min of incubation at RT by the addition of 10 μL of Detection Mix (PerkinElmer, #CR97-100) consisting of Europium-anti-phospho-CREB (Ser133) (Perkin Elmer, catalog number TRF0200). Incubation with the detection mix for a further 60 min allowed binding of antibody to the phospho-Ulight™ CREBtide. The fluorescence emissions at 620 nm and 665 nm after excitation at 350 nm was measured using Envision reader. The ratio of the emissions at 665 nm and at 620 nm provided the measure for the amount of phosphorylated CREBtide product of AKT1 E17K kinase activity. To determine the IC50 values, the data was normalized (enzyme reaction without inhibitor=0% inhibition, all other assay components but no enzyme=100% inhibition) and IC50 values were calculated by a 4-parameter fit using an in-house developed protocol.
Table 9 assigns each compound a code for potency in the AKT1 E 17K kinase assay: A, B, or C. According to the code, A represents an IC50 value <500 nM; B represents an IC50 value from ≥500 nM to <2000 nM; and C represents an IC50 value ≥2000 nM.
A general note: In TR-FRET formats the signal depends on donor and acceptor labels being close together.

For experiment [2], the target named is T2, human recombinant kinase full-length wildtype AKT1 (Homo sapiens, UniProt P31749).
T2 construct: Purified human recombinant kinase full-length wildtype AKT1 was expressed in insect cells; made in house; host or cells: insect cells
T2 sequence (P31749 whole entry): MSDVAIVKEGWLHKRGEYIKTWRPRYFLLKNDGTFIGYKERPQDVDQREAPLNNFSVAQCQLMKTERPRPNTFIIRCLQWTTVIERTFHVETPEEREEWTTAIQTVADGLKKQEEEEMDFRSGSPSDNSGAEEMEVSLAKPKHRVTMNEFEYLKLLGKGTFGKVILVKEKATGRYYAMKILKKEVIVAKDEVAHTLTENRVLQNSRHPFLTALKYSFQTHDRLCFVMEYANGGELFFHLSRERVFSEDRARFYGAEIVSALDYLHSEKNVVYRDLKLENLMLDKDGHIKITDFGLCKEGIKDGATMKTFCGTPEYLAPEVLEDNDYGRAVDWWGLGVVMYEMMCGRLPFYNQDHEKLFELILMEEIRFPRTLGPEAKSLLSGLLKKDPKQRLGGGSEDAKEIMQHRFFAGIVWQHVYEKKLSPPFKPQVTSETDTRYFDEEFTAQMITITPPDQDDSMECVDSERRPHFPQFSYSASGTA
Put plainly: AKT1 kinase assay (wildtype, TR-FRET, Lance). It counts as biochemical. Conditions: 0.6 nM wildtype AKT1, 50 nM Ulight-CREBtide, either 50 μM ATP or 2 mM ATP, 60 min at RT. The protocol: AKT1 kinase assay: Inhibitory effects of compounds on wildtype AKT1 were undertaken in a 10-pt dose response kinase activity assay measuring phospho-peptide product formation based on TR-FRET signal as described in the following paragraph.
as §1, with “full-length wildtype” for “full-length”, “AKT1” for “AKT1 E17K”, “AKT1,50” for “AKT1 E17K, 50”, “1:3” for “1.3”
The symbol +++ represents an IC50 value <20 μM; the symbol ++ represents an IC50 value from ≥20 μM to 80 μM.

T1 sequence (P31749 whole entry E17K): as the sequence (P31749 whole entry) above, with E17K counted along it

Consider `Nc1ncccc1-c1nc2ccc(-c3ccccc3)nc2n1-c1ccc(C2CN(C[C@@H]3CC4CC3CC4C(=O)O)C2)cc1` (some centres unmarked) [Compound I-150], for which the pIC50 is above 6.30 in experiment [1] and above 4.70 in experiment [2].
On to `Cn1nccc1-c1ccc2nc(-c3cccnc3N)n(-c3ccc(NC(=O)[C@H]4CC[C@H](C(=O)O)CC4)nc3)c2n1` [Compound I-116, (1r,4r)-4-((5-(2-(2-aminopyridin-3-yl)-5-(1-methyl-1H-pyrazol-5-yl)-3H-imidazo[4,5-b]pyridin-3-yl)pyridin-2-yl)carbamoyl)cyclohexane-1-carboxylic acid], for which the pIC50 was 5.70 to 6.30 in experiment [1] and above 4.70 in experiment [2].
In the case of `CC1(C)C[C@H](CN2CC(c3ccc(-n4c(-c5cccnc5N)nc5ccc(-c6ccccc6)nc54)cc3)C2)CC(C)(C)[C@H]1C(=O)O` [Compound I-147], the pIC50 in experiment [1] is above 6.30; in experiment [2], above 4.70.
The matching figures for `Nc1ncccc1-c1nc2ccc(-c3ccccc3)nc2n1-c1ccc(NC(=O)[C@H]2CC[C@H](C(=O)O)CC2)cc1` [Compound I-2]: above 6.30 and above 4.70.
In the case of `CC(C(=O)O)C1CCN(Cc2ccc(-n3c(-c4cccnc4N)nc4ccc(-c5ccccc5)nc43)cc2)CC1` (centres unmarked) [Compound I-98, 2-(1-(4-(2-(2-aminopyridin-3-yl)-5-phenyl-3H-imidazo[4,5-b]pyridin-3-yl)benzyl)piperidin-4-yl)propanoic acid], the pIC50 in experiment [1] is at most 5.70; in experiment [2], above 4.70.
As for `Cc1cc(C2CN(C[C@H]3CC[C@H](C(=O)O)CC3)C2)ccc1-n1c(-c2cccnc2N)nc2ccc(-c3ccccc3)cc21` [Compound I-223], the pIC50 in experiment [1] is at most 5.70; in experiment [2], above 4.70.
As to `CC(C)(C(=O)O)C1CCN(Cc2ccc(-n3c(-c4cccnc4N)nc4ccc(-c5ccccc5)nc43)cn2)CC1` [Compound I-135, 2-(1-((5-(2-(2-aminopyridin-3-yl)-5-phenyl-3H-imidazo[4,5-b]pyridin-3-yl)pyridin-2-yl)methyl)piperidin-4-yl)-2-methylpropanoic acid], the pIC50 in experiment [1] is at most 5.70; in experiment [2], above 4.70.
In the case of `Nc1ncccc1-c1nc2ccc(-c3ccccc3)nc2n1-c1ccc(NC(=O)C2CCCC(C(=O)O)C2)nc1` (centres unmarked) [Compound I-11, 3-((5-(2-(2-aminopyridin-3-yl)-5-phenyl-3H-imidazo[4,5-b]pyridin-3-yl)pyridin-2-yl)carbamoyl)cyclohexane-1-carboxylic acid], the values for the pIC50 in experiment [1] and in experiment [2] were above 6.30 and above 4.70, respectively.
Take `Nc1ncccc1-c1nc2ccc(-c3ccccc3)nc2n1-c1ccc(C(=O)N[C@H]2CC[C@@H](C(=O)O)CC2)cc1` [Compound I-17, (1s,4s)-4-(4-(2-(2-aminopyridin-3-yl)-5-phenyl-3H-imidazo[4,5-b]pyridin-3-yl)benzamido)cyclohexane-1-carboxylic acid]: the pIC50 is 5.70 to 6.30 in experiment [1] and above 4.70 in experiment [2].
The matching figures for `Cc1nc(NC(=O)[C@H]2CC[C@H](C(=O)O)CC2)ccc1-n1c(-c2cccnc2N)nc2ccc(-c3ccc(F)cc3F)nc21` [Compound I-216]: at most 5.70 and above 4.70.
Take `CC(C)C([C@H]1CC[C@H](C(=O)O)CC1)N1CC(c2ccc(-n3c(-c4cccnc4N)nc4ccc(-c5ccccc5)nc43)cc2)C1` (some centres unmarked) [Compound I-143]: the pIC50 in experiment [1] is 5.70 to 6.30; in experiment [2] it was above 4.70.
`C[C@H]([C@H]1CC[C@H](C(=O)O)CC1)N1CC(c2ccc(-n3c(-c4cccnc4N)nc4ccc(-c5ccccc5)nc43)cc2)C1` [Compound I-59, (1R,4r)-4-((R)-1-(3-(4-(2-(2-aminopyridin-3-yl)-5-phenyl-3H-imidazo[4,5-b]pyridin-3-yl)phenyl)azetidin-1-yl)ethyl)cyclohexane-1-carboxylic acid]: the pIC50 in experiment [1] is above 6.30; in experiment [2], above 4.70.
The matching figures for `COc1ccccc1-c1ccc2nc(-c3cccnc3N)n(-c3ccc(NC(=O)[C@H]4CC[C@H](C(=O)O)CC4)nc3C)c2n1` [Compound I-220]: 5.70 to 6.30 and above 4.70.
The matching figures for `Nc1ncccc1-c1nc2ccc(-c3ccccc3)nc2n1-c1ccc(CNC(=O)C2CC(=O)CC(=O)C2)cc1` [Compound I-38, N-(4-(2-(2-aminopyridin-3-yl)-5-phenyl-3H-imidazo[4,5-b]pyridin-3-yl)benzyl)-3,5-dioxocyclohexane-1-carboxamide]: above 6.30 and above 4.70.
The matching figures for `Nc1ncccc1-c1nc2ccc(-c3ccccc3)nc2n1-c1ccc(N2CC3(CC(C(=O)O)C3)C2)nc1` [Compound I-107, 2-(5-(2-(2-aminopyridin-3-yl)-5-phenyl-3H-imidazo[4,5-b]pyridin-3-yl)pyridin-2-yl)-2-azaspiro[3.3]heptane-6-carboxylic acid]: at most 5.70 and above 4.70.
In the case of `Nc1ncccc1-c1nc2ccc(-c3ccc(F)cc3)nc2n1-c1ccc(NC(=O)[C@H]2CC[C@H](C(=O)O)CC2)nc1` [Compound I-40, (1r,4r)-4-((5-(2-(2-aminopyridin-3-yl)-5-(4-fluorophenyl)-3H-imidazo[4,5-b]pyridin-3-yl)pyridin-2-yl)carbamoyl)cyclohexane-1-carboxylic acid], the figures for the pIC50 in experiment [1] and in experiment [2] were above 6.30 and above 4.70, respectively.
Take `Nc1ncccc1-c1nc2ccc(-c3ccccc3)cc2n1-c1ccc(C2CN(C[C@H]3CC[C@H](C(=O)O)CC3)C2)cc1` [Compound I-221, (1r,4r)-4-((3-(4-(2-(2-aminopyridin-3-yl)-6-phenyl-1H-benzo[d]imidazol-1-yl)phenyl)azetidin-1-yl)methyl)cyclohexane-1-carboxylic acid]: the pIC50 in experiment [1] is 5.70 to 6.30; in experiment [2] it was above 4.70.
With `Nc1ncccc1-c1nc2ccc(OC(F)(F)F)cc2n1-c1ccc(NC(=O)[C@H]2CC[C@H](C(=O)O)CC2)nc1` [Compound I-123, (1r,4r)-4-((5-(2-(2-aminopyridin-3-yl)-6-(trifluoromethoxy)-1H-benzo[d]imidazol-1-yl)pyridin-2-yl)carbamoyl)cyclohexane-1-carboxylic acid], the pIC50 was at most 5.70 in experiment [1] and above 4.70 in experiment [2].
The matching figures for `C[C@@H]1C[C@H](N(C)Cc2ccc(-n3c(-c4cccnc4N)nc4ccc(-c5ccccc5)nc43)c(F)c2)C[C@H](C)[C@H]1C(=O)O` [Compound I-160]: 5.70 to 6.30 and above 4.70.

A word on the pIC50: it is the negative decadic logarithm of the IC50, by convention in mol/L.
